Eight molecules from PubChem BioAssay (NCI) can be followed below.

Among the test systems are CCRF-CEM leukemia; HT29 colon; K-562 leukemia; NCI-H460 lung; NCI-H522 lung; OVCAR-3 ovarian; OVCAR-8 ovarian; SF-268 CNS; U251 CNS; UACC-257 melanoma.
What all share (assay): NCI tumour cell line growth inhibition, 48 h

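Growth conditions: 96-well plates. Treatment: test compound, 48 hours, 5 concentrations. Analysis: linear interpolation between bracketing concentrations; unreached endpoints set to highest concentration. GI50 is the concentration that inhibits growth by half. TGI: total growth inhibition.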

For the molecule `O=C1C=C(c2cc(Br)c(O)c(Br)c2)/C(=C/c2cc(Br)c(O)c(Br)c2)O1`, the GI50 was 7.38 µM in the test with CCRF-CEM leukemia; 39.2 µM in the test on HT29 colon; 24 µM in the test with K-562 leukemia; 24.1 µM in the test on NCI-H460 lung; 30.4 µM in the test on NCI-H522 lung; 21 µM in the test with OVCAR-3 ovarian. Also, the GI50 in the test on OVCAR-8 ovarian was 29 µM; in the test on SF-268 CNS, 30.5 µM; with U251 CNS it was 26.4 µM; with UACC-257 melanoma it was greater than 75 µM. The TGI in the test with CCRF-CEM leukemia was 73.8 µM; in the test on HT29 colon it was greater than 75 µM; with K-562 leukemia, greater than 75 µM; in the test on NCI-H460 lung, greater than 75 µM; with NCI-H522 lung it was greater than 75 µM; in the test with OVCAR-3 ovarian it was 71 µM. Besides, the TGI in the test with OVCAR-8 ovarian, in the test on SF-268 CNS, with U251 CNS and in the test with UACC-257 melanoma was greater than 75 µM throughout.
On to `O=S(=O)(O)c1ccc2cc(N=Nc3cc(S(=O)(=O)O)c4cccnc4c3O)ccc2c1`, for which the TGI in the test on CCRF-CEM leukemia, in the test with HT29 colon, in the test with K-562 leukemia, in the test with NCI-H460 lung, in the test on NCI-H522 lung and in the test on OVCAR-3 ovarian was greater than 100 µM each time. The TGI with OVCAR-8 ovarian, in the test with SF-268 CNS, with U251 CNS and in the test on UACC-257 melanoma was greater than 100 µM in each case.
As for `CCOC(=O)C(=O)Nc1c(C)cccc1CC`, the TGI in the test with CCRF-CEM leukemia, in the test with HT29 colon, with K-562 leukemia, in the test on NCI-H460 lung, in the test with NCI-H522 lung and in the test with OVCAR-3 ovarian was greater than 100 µM throughout. Besides, the TGI in the test with OVCAR-8 ovarian, with SF-268 CNS, with U251 CNS and in the test on UACC-257 melanoma was greater than 100 µM in each case.
For `CC(C)(C)C([O-])=C1C(=O)c2ccccc2C1=O.CC(C)(C)C([O-])=C1C(=O)c2ccccc2C1=O.CC[O-].CC[O-].[Ti+4]`, the GI50 with CCRF-CEM leukemia was 38.8 µM; in the test on HT29 colon, 32.9 µM; in the test with K-562 leukemia it was 44.9 µM; in the test on NCI-H460 lung, 32.1 µM; with NCI-H522 lung, 21.7 µM; with OVCAR-3 ovarian, 27.9 µM. Besides, the GI50 in the test on OVCAR-8 ovarian is 29.3 µM; in the test with SF-268 CNS, 70.6 µM; in the test with U251 CNS, 41.6 µM; in the test with UACC-257 melanoma, 30.4 µM. Also, the TGI with CCRF-CEM leukemia was greater than 100 µM; in the test with HT29 colon, greater than 100 µM; with K-562 leukemia, greater than 100 µM; in the test with NCI-H460 lung it was greater than 100 µM; in the test with NCI-H522 lung, 54.2 µM; in the test with OVCAR-3 ovarian, 91.4 µM. In addition, the TGI with OVCAR-8 ovarian was 90.1 µM; in the test on SF-268 CNS it was greater than 100 µM; with U251 CNS, greater than 100 µM; in the test with UACC-257 melanoma, 96.9 µM.
Take `COC(=O)c1ccc(OCc2ccc3oc(=O)c(-c4ccccc4)nc3c2)cc1`: the TGI in the test with CCRF-CEM leukemia is 72.7 µM; in the test on HT29 colon it was greater than 100 µM; with K-562 leukemia it was greater than 100 µM; in the test with NCI-H460 lung it was greater than 100 µM; in the test on NCI-H522 lung, greater than 100 µM; with OVCAR-3 ovarian it was greater than 100 µM. For the same molecule, the TGI with OVCAR-8 ovarian, with SF-268 CNS, with U251 CNS and with UACC-257 melanoma was greater than 100 µM throughout.
Turning to `C=CCN(N=O)C(=O)N(CCC)CCCC(NC(C)=O)C(=O)NCc1ccccc1` (stereo not given), the TGI in the test with CCRF-CEM leukemia, in the test with HT29 colon, in the test with K-562 leukemia, in the test with NCI-H460 lung, in the test on NCI-H522 lung and in the test with OVCAR-3 ovarian was greater than 100 µM each time. The TGI with OVCAR-8 ovarian, in the test on SF-268 CNS, in the test on U251 CNS and with UACC-257 melanoma was greater than 100 µM each time.
In the case of `COC(=O)c1ccc2c(c1)c1c(C)c3cnccc3c(C)c1n2C`, the GI50 in the test on CCRF-CEM leukemia is 0.103 µM; in the test with HT29 colon, 0.0418 µM; in the test on K-562 leukemia, 0.0442 µM; with NCI-H460 lung it was 0.178 µM; in the test with NCI-H522 lung, 0.0667 µM; in the test on OVCAR-3 ovarian, 0.0652 µM. Further, the GI50 in the test with OVCAR-8 ovarian is 0.0595 µM; in the test on SF-268 CNS, 0.0618 µM; in the test on U251 CNS it was 0.0499 µM; in the test on UACC-257 melanoma it was 0.101 µM. Besides, the TGI with CCRF-CEM leukemia came to 13.8 µM; in the test on HT29 colon, 1.4 µM; with K-562 leukemia it was 1.8 µM; in the test with NCI-H460 lung, 0.674 µM; in the test on NCI-H522 lung, 0.528 µM; in the test on OVCAR-3 ovarian, 1.15 µM. The TGI in the test with OVCAR-8 ovarian is 3.79 µM; in the test with SF-268 CNS, 3.06 µM; in the test on U251 CNS, 1.48 µM; in the test on UACC-257 melanoma, 0.511 µM.
For `CCOC(=O)/C=C(/CN1C(=O)c2ccccc2C1=O)c1ccccc1`, the TGI in the test with CCRF-CEM leukemia, in the test with HT29 colon, with K-562 leukemia, in the test on NCI-H460 lung, in the test on NCI-H522 lung and in the test with OVCAR-3 ovarian was greater than 100 µM in each case. Further, the TGI in the test on OVCAR-8 ovarian, with SF-268 CNS, in the test on U251 CNS and in the test with UACC-257 melanoma was greater than 100 µM throughout.
